In ChEMBL document CHEMBL1201862, “PubChem BioAssay data set” (2004) one finds IC50 data, which are given here for two compounds.

The structures appear in SMILES notation. Activity calls are given as the source filed them. Cut-off read from the data, not from the text of the source: actives have a measured IC50 and inactives only a lower limit.

In this assay the target is Envelope glycoprotein gp160 (Human immunodeficiency virus 1, UniProt Q6QLK5). The assay is described as follows: cell-free HIV fusion peptide-binding blockers – biochemical, uHTS, fluorescence dequenching, […] (AID 1986).
Envelope glycoprotein gp160, sequence (Q6QLK5 whole entry, the tested form may be a part): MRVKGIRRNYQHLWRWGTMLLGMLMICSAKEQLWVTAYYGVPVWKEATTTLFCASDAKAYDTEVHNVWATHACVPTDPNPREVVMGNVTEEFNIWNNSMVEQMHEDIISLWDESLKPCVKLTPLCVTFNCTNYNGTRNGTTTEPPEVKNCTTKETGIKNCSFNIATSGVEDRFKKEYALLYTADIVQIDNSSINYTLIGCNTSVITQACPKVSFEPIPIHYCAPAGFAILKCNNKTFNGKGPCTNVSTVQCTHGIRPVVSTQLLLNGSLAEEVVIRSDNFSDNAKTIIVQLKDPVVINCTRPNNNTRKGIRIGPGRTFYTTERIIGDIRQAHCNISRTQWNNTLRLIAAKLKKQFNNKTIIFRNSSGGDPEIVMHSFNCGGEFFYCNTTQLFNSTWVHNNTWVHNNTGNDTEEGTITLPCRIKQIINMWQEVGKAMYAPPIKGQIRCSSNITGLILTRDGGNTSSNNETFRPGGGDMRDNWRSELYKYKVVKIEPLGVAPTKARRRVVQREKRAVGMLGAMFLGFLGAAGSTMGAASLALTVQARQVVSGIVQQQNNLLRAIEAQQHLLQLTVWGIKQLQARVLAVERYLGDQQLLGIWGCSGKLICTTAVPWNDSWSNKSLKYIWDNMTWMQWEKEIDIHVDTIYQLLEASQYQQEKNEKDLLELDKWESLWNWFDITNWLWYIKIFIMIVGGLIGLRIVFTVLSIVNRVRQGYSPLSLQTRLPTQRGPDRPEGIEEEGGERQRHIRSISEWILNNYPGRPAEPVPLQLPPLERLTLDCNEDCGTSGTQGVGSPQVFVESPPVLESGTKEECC

Usually IC50 stands for the concentration needed to halve the response being measured. In the case of `O=C(O)c1cc(N/N=C/c2ccc(-c3ccccc3)cc2)ccc1Cl`, the 50% inhibitory concentration (IC50) is 16.1 µM (active).
The figure for `N#Cc1c(O)nc(SCc2cccc(Cl)c2)nc1-c1ccccc1` is 24.8 µM (active).
